Assay type in all cases: biochemical
For assay [1], the target named is T1, recombinant human VAP-1 (Homo sapiens, UniProt Q16853).
T1 construct: purchased R&D systems
T1 sequence (Q16853 1-763): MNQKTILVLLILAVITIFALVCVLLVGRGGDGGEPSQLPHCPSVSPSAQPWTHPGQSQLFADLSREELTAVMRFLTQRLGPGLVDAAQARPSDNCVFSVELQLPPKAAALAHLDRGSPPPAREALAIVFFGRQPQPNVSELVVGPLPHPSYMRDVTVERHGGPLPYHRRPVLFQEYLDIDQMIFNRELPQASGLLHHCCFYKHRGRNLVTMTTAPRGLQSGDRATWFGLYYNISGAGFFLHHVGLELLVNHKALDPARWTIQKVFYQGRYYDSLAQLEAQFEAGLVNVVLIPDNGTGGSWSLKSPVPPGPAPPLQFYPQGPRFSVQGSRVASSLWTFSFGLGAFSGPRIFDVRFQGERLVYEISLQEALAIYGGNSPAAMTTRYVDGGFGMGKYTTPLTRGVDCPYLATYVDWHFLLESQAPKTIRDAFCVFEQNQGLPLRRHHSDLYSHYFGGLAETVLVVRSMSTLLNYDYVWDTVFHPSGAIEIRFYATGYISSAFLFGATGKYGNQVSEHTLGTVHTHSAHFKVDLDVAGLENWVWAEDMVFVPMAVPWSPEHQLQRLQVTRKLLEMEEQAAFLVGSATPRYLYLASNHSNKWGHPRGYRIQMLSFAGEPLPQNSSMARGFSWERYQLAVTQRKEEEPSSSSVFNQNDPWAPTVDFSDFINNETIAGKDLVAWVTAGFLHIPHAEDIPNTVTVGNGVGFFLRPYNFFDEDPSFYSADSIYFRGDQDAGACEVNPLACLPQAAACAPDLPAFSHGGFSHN
In words: Activity on recombinant human VAP-1, Amplex Red HRP-coupled hydrogen peroxide assay, benzylamine substrate. As to conditions: recombinant human VAP-1, benzylamine substrate, read-out: Inhibitory Activity (IC50, nM) human VAP-1. The method, boiled down:
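8-point 1:3 dilutions, final DMSO <1%; 30 min enzyme preincubation, 37 °C, pH 7.4 phosphate. Start: 1 mM benzylamine + 200 uM Amplex Red + 1 U/mL HRP. Read ex544/em590 over 1-2 h; % rate decrease vs DMSO control, 4-parameter logistic IC50.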

The target of assay [2] is T2, recombinant human MAO-A (monoamine oxidase-A) (Homo sapiens, UniProt P21397).
T2 construct: purchased Sigma-Aldrich
T2 sequence (P21397 1-527): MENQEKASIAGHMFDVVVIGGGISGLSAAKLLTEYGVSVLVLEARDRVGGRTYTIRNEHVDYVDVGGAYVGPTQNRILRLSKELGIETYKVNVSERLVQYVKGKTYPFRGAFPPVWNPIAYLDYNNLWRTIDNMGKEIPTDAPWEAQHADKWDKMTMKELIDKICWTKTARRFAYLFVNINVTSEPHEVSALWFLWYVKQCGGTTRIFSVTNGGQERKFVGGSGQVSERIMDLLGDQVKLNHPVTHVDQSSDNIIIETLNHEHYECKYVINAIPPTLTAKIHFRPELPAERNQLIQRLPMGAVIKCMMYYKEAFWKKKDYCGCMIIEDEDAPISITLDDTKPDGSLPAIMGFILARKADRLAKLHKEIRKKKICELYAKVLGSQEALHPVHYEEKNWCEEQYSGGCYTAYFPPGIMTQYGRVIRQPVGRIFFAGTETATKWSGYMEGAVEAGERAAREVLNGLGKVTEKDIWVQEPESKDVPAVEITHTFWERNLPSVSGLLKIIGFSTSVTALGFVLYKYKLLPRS
In words: Activity on recombinant human MAO-A, Amplex Red method, 0.5 mM tyramine substrate. As to conditions: read-out: Inhibitory Activity (IC50, nM) MAO-A. The method, boiled down: (§1)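 HRP-coupled Amplex Red H2O2 assay, 50 mM sodium phosphate pH 7.4; compounds (8-point 1:3 series, final DMSO <1%) preincubated with enzyme 30 min at 37° C, then 200 uM Amplex Red, 1 U/mL HRP and substrate (MAO-A 0.5 mM tyramine; MAO-B 1 mM benzylamine) added. Resorufin fluorescence (ex 544/em 590 nm) read over 1-2 h; IC50 from four-parameter logistic fit.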

Assay [3] deals with T3, recombinant human MAO-B (monoamine oxidase-B) (Homo sapiens, UniProt P27338).
T3 construct: purchased Sigma-Aldrich
T3 sequence (P27338 1-520): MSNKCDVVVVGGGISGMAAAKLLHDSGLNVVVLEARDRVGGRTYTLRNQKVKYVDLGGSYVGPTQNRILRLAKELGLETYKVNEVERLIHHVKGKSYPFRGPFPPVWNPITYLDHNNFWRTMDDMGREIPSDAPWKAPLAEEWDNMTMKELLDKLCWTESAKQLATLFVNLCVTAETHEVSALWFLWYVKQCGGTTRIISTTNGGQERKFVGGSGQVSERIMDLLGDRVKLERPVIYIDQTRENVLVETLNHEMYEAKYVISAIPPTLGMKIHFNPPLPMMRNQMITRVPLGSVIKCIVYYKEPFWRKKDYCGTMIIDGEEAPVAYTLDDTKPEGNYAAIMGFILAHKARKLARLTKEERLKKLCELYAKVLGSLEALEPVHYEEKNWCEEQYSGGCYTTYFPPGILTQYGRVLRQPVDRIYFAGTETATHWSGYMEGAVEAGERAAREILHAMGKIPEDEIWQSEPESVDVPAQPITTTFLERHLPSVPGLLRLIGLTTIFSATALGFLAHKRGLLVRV
Put plainly: Activity on recombinant human MAO-B, Amplex Red method, 1 mM benzylamine substrate. As to conditions: read-out: Inhibitory Activity (IC50, nM) MAO-B. The essentials:
as §1

For assay [4], the target named is T4, recombinant human DAO (diamine oxidase) (Homo sapiens, UniProt P19801).
T4 construct: purchased R&D systems
T4 sequence (P19801 20-751): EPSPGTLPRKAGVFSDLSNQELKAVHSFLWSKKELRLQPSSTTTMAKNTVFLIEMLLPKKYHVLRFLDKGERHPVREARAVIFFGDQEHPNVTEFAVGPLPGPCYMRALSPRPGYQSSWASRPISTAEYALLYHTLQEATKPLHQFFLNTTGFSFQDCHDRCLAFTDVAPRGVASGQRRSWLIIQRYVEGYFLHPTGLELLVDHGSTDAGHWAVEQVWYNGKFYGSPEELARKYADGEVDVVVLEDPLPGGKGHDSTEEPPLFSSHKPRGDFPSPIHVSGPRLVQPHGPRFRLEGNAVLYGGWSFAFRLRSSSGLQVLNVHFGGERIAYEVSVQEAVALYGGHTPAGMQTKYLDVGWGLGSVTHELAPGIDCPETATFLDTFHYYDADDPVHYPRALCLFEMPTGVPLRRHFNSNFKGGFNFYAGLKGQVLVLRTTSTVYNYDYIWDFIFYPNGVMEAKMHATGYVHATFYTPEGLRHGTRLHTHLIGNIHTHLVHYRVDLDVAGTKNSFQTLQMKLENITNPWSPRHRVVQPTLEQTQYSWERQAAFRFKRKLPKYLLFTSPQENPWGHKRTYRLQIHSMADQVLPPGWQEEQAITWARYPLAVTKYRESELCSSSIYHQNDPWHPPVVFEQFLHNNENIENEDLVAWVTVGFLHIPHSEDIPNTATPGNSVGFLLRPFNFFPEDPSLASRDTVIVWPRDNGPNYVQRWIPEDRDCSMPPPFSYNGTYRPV
In words: Activity on recombinant human DAO, Amplex Red method, 1 mM putrescine substrate. The note with it: recombinant human DAO; for IC50: read-out: Inhibitory Activity (IC50, nM) DAO. The essentials:
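Inhibition of recombinant human DAO (diamine oxidase, R&D systems) was assessed with the Amplex Red Hydrogen Peroxide Assay Kit. Hydrogen peroxide produced from 1 mM putrescine was detected through an HRP-coupled reaction that converts Amplex Red into fluorescent resorufin, read at 544 nm excitation and 590 nm emission. IC50 values came from four-parameter logistic fits in GraphPad Prism.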

[5] abbreviates: 1 mM putrescine, * = between 10 and 100 nM, ** = between 300 and 1000 nM.

The source of these data is patent publication US11492335B2, “Aryl or heteroaryl triazolone derivatives or salts thereof, or pharmaceutical compositions comprising the same” (YUHAN CORPORATION, priority 2018, dated 2022).

Where a name gives a salt, the structure may show the parent alone. Read-outs that look alike come from different tables or passages of the source.

By IC50 is commonly meant the point on the concentration scale where inhibition reaches its midpoint. Regarding `CC(=O)Nc1ccc(-c2cccc(-n3cnn(C/C(=C/F)CN)c3=O)c2C)cc1` [Example 107, N-(3′-{1-[(2E)-2-(aminomethyl)-3-fluoroprop-2-en-1-yl]-5-oxo-1,5-dihydro-4H-1,2,4-triazol-4-yl}-2′-methylbiphenyl-4-yl)acetamide], the figures for the IC50 in assay [1] (30 min preincubation at 37° C.), in assay [2] (0.5 mM tyramine) and in assay [3] (1 mM benzylamine) were 2.8 nM, more than 100000 nM and more than 10000 nM, respectively. The “Inhibitory Activity (IC50, nM) DAO” value in assay [4] (setting [5]) was “no inhibitory”.
In the case of `CC(=O)Nc1cc(-c2cc(C)c(-n3cnn(C/C(=C/F)CN)c3=O)cn2)ccn1` [Example 123, N-(5-{1-[(2E)-2-(aminomethyl)-3-fluoroprop-2-en-1-yl]-5-oxo-1,5-dihydro-4H-1,2,4-triazol-4-yl}-4-methyl-2,4′-bipyridin-2′-yl)acetamide], the half-maximal inhibitory concentration (IC50) was 1.3 nM in assay [1] (30 min preincubation at 37° C.), more than 100000 nM in assay [2] (0.5 mM tyramine), 3220 nM in assay [3] (1 mM benzylamine) and less than 100 nM in assay [4] (setting [5]).
The like results for `NC/C(=C\F)Cn1ncn(-c2cccc(-c3ccc4c(c3)NC(=O)CO4)c2)c1=O` [Example 103, 6-(3-{1-[(2E)-2-(aminomethyl)-3-fluoroprop-2-en-1-yl]-5-oxo-1,5-dihydro-4H-1,2,4-triazol-4-yl}phenyl)-2H-1,4-benzoxazin-3(4H)-one hydrochloride] were, in that order, 0.6 nM, 26500 nM, 1200 nM and 2.5 nM.
Consider `CC(=O)Nc1cc(-c2cnc(-n3cnn(C/C(=C/F)CN)c3=O)cn2)ccn1` [Example 220, N-[4-(5-{1-[(2E)-2-(aminomethyl)-3-fluoroprop-2-en-1-yl]-5-oxo-1,5-dihydro-4H-1,2,4-triazol-4-yl}pyrazin-2-yl)pyridin-2-yl]acetamide], for which the IC50 in assay [1] is 1.8 nM; in assay [2] (0.5 mM tyramine substrate), more than 100000 nM; in assay [3] (1 mM benzylamine substrate) it was 396 nM; in assay [4] (1 mM putrescine substrate), less than 100 nM.
Turning to `COc1ccc(-c2cccc(-n3cnn(C/C(=C/F)CN)c3=O)c2)cn1` [Example 83, 2-[(2E)-2-(aminomethyl)-3-fluoroprop-2-en-1-yl]-4-[3-(6-methoxypyridin-3-yl)phenyl]-2,4-dihydro-3H-1,2,4-triazol-3-one hydrochloride], the IC50 was 0.88 nM in assay [1] (30 min preincubation at 37° C.), more than 100000 nM in assay [2] (0.5 mM tyramine), 2460 nM in assay [3] (1 mM benzylamine) and less than 30 nM in assay [4] (setting [5]).
Consider `NC/C(=C\F)Cn1ncn(-c2cc(C#Cc3ccncc3)ccn2)c1=O` [Example 246, 2-[(2E)-2-(aminomethyl)-3-fluoroprop-2-en-1-yl]-4-[4-(pyridin-4-ylethynyl)pyridin-2-yl]-2,4-dihydro-3H-1,2,4-triazol-3-one hydrochloride], for which the 50% inhibitory concentration (IC50) is 0.5 nM in assay [1], more than 100000 nM in assay [2] (0.5 mM tyramine substrate), 130 nM in assay [3] (1 mM benzylamine substrate) and 12 nM in assay [4] (1 mM putrescine substrate).
Take `NC/C(=C\F)Cn1ncn(-c2ccc(Br)cc2F)c1=O` [Example 12, 2-[(2E)-2-(aminomethyl)-3-fluoroprop-2-en-1-yl]-4-(4-bromo-2-fluorophenyl)-2,4-dihydro-3H-1,2,4-triazol-3-one hydrochloride]: the IC50 amounted to 0.75 nM in assay [1] (30 min preincubation at 37° C.), 1500 nM in assay [2] (0.5 mM tyramine), 281 nM in assay [3] (1 mM benzylamine) and 38 nM in assay [4] (setting [5]).
Regarding `NC/C(=C\F)Cn1ncn(-c2cccc(C#Cc3ccc(N4CCOCC4)nc3)n2)c1=O` [Example 249, 2-[(E)-2-(aminomethyl)-3-fluoro-allyl]-4-[6-[2-(6-morpholino-3-pyridyl)ethynyl]-2-pyridyl]-1,2,4-triazol-3-one], the IC50 was 0.4 nM in assay [1], more than 100000 nM in assay [2] (0.5 mM tyramine substrate), 2000 nM in assay [3] (1 mM benzylamine substrate) and 8 nM in assay [4] (1 mM putrescine substrate).
Turning to `Cc1c(-c2ccc(-c3ccon3)cc2)cccc1-n1cnn(C/C(=C/F)CN)c1=O` [Example 108, 2-[(2E)-2-(aminomethyl)-3-fluoroprop-2-en-1-yl]-4-[2-methyl-4′-(1,2-oxazol-3-yl)biphenyl-3-yl]-2,4-dihydro-3H-1,2,4-triazol-3-one], the concentration for half-maximal inhibition (IC50) was 2.2 nM in assay [1] (30 min preincubation at 37° C.), more than 100000 nM in assay [2] (0.5 mM tyramine), more than 10000 nM in assay [3] (1 mM benzylamine) and 3500 nM in assay [4] (setting [5]).
In the case of `NC/C(=C/F)Cn1ncn(-c2ccc(OCc3ccccc3)cc2)c1=O` [Example 7, 2-[(2Z)-2-(aminomethyl)-3-fluoroprop-2-en-1-yl]-4-[4-(benzyloxy)phenyl]-2,4-dihydro-3H-1,2,4-triazol-3-one], the half-inhibitory concentration (IC50) in assay [1] (30 min preincubation at 37° C.) was found to be 0.88 nM; in assay [2] (0.5 mM tyramine) it was 2100 nM; in assay [3] (1 mM benzylamine), 8 nM; in assay [4] (setting [5]), 47 nM.
